Test: Residence time / pharmacokinetics of pilocarpine in the tear fluid
Set-up: species or system male New Zealand albino rabbits
Conditions: rabbit, in vivo
Source text: Specifically, all of the ophthalmic preparations employed in the tests shown herein contain 2.0% by weight of pilocarpine nitrate (PiNO3), but the control preparation referred to in the following table as RS (i.e. reference solution) is an aqueous solution without any thickening agent, while the preparation according to the invention, referred to below as "TSP", is formulated according to Example 2.1.
All of the tests described herein have been carried out on male New Zealand albino rabbits weighing 3-3.5 kg, non anesthesized and kept in standard stabling conditions, at a temperature of 18-20° C. Both the miotic effect and the residence time of the drug in the tear fluid were measured after instillation (at the time=0) of 25 μl of the preparation under study in the lower conjunctival sac of one eye of the rabbits, while the other eye served as a control.
In order to verify whether the product according to the invention was able to prolong, in comparison with other vehicles, the residence of the drug in the precorneal area, the following test was carried out: after instillation of one of the preparations under test, samples of tear fluid (1 μl) were collected, at suitable time intervals, from the rim portion of the lower conjunctival sac, using a microcapillary and avoiding any contact with the corneal epithelium. The tear fluid samples, transferred into microprobes, were diluted with water and analysed by HPLC.
The results of said test are reported, in terms of pilocarpine concentration (μg/μl) detected in the tear fluid as a function of time, in Table 9 and in the corresponding FIG. 7.
The differences in the performance of the various vehicles are better evidenced by the following table, reporting the pharmacokinetic parameters of pilocarpine in the tear fluid, in the various formulations, as calculated from the tests described above. The said parameters are as follows:
Ke : apparent clearance velocity constant
AUCrel : AUC relative to the reference solution
t1/2 : half-life time of the drug in the tear fluid
MRT: mean residence time of the drug in the tear fluid.

In the case of HPMC, the “AUC t3min→∞” value is reported as 23.13 µg·min/µL, the “AUCrel, AUC relative to the reference solution” value is reported as 6.27 and the “Ke, apparent clearance velocity constant” value is reported as 0.098 min⁻¹. For the same substance, the “MRT, mean residence time” value was 8.83 min, the “increase in half-life with respect to the reference solution” value was “almost of double” and the “pilocarpine concentration in the tear fluid” value (“pilocarpine concentration” below) (3 min) was 3.894 µg/µL. For the same substance, the “pilocarpine concentration” value (5 min) was 1.9 µg/µL, the “pilocarpine concentration” value (10 min) was 1.03 µg/µL and the “pilocarpine concentration” value (15 min) was 0.583 µg/µL. For the same substance, the “pilocarpine concentration” value (30 min) was 0.074 µg/µL, the “pilocarpine concentration” value (45 min) was 0.025 µg/µL and the “pilocarpine concentration” value (60 min) was 0.016 µg/µL.
